What follows are compounds tested against T1, CNOT7 (Homo sapiens, UniProt Q9UIV1) (assay: Binding of compounds to CNOT7 by surface plasmon resonance (SPR)). Settings: Table 4; dissociation constant for CNOT7.
T1 construct: biotin (biotinylated); purchased Ichor Life Sciences
T1 sequence (Q9UIV1 whole entry): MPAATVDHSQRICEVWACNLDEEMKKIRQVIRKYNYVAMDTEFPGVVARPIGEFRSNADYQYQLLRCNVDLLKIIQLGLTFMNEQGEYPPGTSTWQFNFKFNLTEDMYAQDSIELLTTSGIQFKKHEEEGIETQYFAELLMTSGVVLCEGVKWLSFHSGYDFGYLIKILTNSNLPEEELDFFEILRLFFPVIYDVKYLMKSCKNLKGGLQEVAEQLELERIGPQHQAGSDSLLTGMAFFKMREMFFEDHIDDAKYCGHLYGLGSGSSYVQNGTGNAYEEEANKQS
Procedure: Surface plasmon resonance (SPR) was used to evaluate the binding of compounds to CNOT7. Experiments were performed on a Biacore 8K (Cytiva) with a running buffer consisting of 20 mM HEPES pH7.5, 100 mM KCl, 3 mM MgCl2, 1 mM TCEP, 0.05% tween-20, 2% DMSO. Briefly, biotinylated CNOT7 (Ichor Life Sciences) at a concentration of 70 μg/ml was immobilized to a streptavidin coated chip (Cytiva sensor chip SA) for 1200 sec at a flow rate of 5 μl/min (typical immobilization level 7,500 RU). For compound binding experiments, various concentrations of analyte were flowed over the chip with 120 sec association phase, 120 sec dissociation phase, at a flow rate of 30 ul/min and collection rate of 10 Hz. Reference channel subtraction and solvent correction were applied to all sensograms prior to data analysis. Sensograms were fit to 1:1 steady state affinity model. FIGS. 3 and 4 show the binding of exemplary compounds and the AMP control (a known CNOT7 active site binder) at various concentrations to CNOT7.
With `COc1cccc(CNC(=O)CSc2nc(=O)[nH]cc2C)c1` [Compound I-5] the Kd was over 25 µM.

Same assay, conditions: Table 5; dissociation constant for CNOT7 by SPR
`Cc1c[nH]c(=O)nc1SCC(=O)NCc1ccc2c(c1)OCCO2` [Compound I-50] gave a Kd of 1 to 25 µM. Compound `CC[C@@H](NC(=O)CSc1nc(=O)[nH]cc1C)c1ccc(OC)cc1` [Compound I-217] has a Kd of 1 to 25 µM. `COc1ccc([C@@H](C)NC(=O)CSc2nc(=O)[nH]cc2C)cc1` [Compound I-27] gave a Kd of 1 to 25 µM. With `CCC(Sc1nc(=O)[nH]cc1C)C(=O)NCc1ccc(OC)cc1` (centres unmarked) [Compound I-170] the Kd was 1 to 25 µM. With `Cc1c[nH]c(=O)nc1SCC(=O)NCc1ccc2c(c1)N(C)CCO2` [Compound I-55] the Kd was over 25 µM. For `CCc1c[nH]c(=O)nc1SCC(=O)N[C@H](C)c1ccc(OC)cc1` [Compound I-226], the Kd was 1 to 25 µM. With `CCOc1ccc([C@@H](C)NC(=O)CSc2nc(=O)[nH]cc2C)cc1` [Compound I-277] the Kd was 1 to 25 µM. Work on `COc1ccc([C@@H](C)NC(=O)CSc2nc(=O)[nH]cc2Cl)cc1F` [Compound I-306] yielded a Kd of 1 to 25 µM. Work on `Cc1c[nH]c(=O)nc1SCC(=O)NCc1ccc2oc(=O)[nH]c2c1` [Compound I-51] yielded a Kd of over 25 µM. `COCC(Sc1nc(=O)[nH]cc1C)C(=O)NC(C)c1ccc(OC)cc1` (centres unmarked) [Compound I-266] gave a Kd of 1 to 25 µM. Compound `COc1ccc(CNC(=O)C(C)Sc2nc(=O)[nH]cc2C)cc1` (centres unmarked) [Compound I-168] has a Kd of 1 to 25 µM. `COCC(Sc1nc(=O)[nH]cc1C)C(=O)NCc1ccc(OC)cc1` (centres unmarked) [Compound I-169] was tested, and the Kd was 1 to 25 µM. With `COc1ccc([C@@H](CO)NC(=O)CSc2nc(=O)[nH]cc2C)cc1` [Compound I-48] the Kd was 1 to 25 µM. For `COc1ccc(C(C)(C)NC(=O)CSc2nc(=O)[nH]cc2C)cc1` [Compound I-249], the Kd was 1 to 25 µM. `COCCOCC[C@@H](Sc1nc(=O)[nH]cc1C)C(=O)NCc1ccc(OC)cc1` [Compound I-166, (2R)-4-(2-methoxyethoxy)-N-[(4-methoxyphenyl)methyl]-2-[(5-methyl-2-oxo-1H-pyrimidin-4-yl)sulfanyl]butanamide] showed a Kd of 1 to 25 µM. `Cc1c[nH]c(=O)nc1SCC(=O)N[C@@H](c1ccc(O)cc1)C1CC1` [Compound I-219] gave a Kd of 1 to 25 µM. In the case of `COc1cnc(CNC(=O)CSc2nc(=O)[nH]cc2C)nc1` [Compound I-44], the Kd is reported as 1 to 25 µM. `COCCOCC[C@H](Sc1nc(=O)[nH]cc1C)C(=O)NCc1ccc(OC)cc1` [Compound I-167, (2S)-4-(2-methoxyethoxy)-N-[(4-methoxyphenyl)methyl]-2-[(5-methyl-2-oxo-1H-pyrimidin-4-yl)sulfanyl]butanamide] gave a Kd of 1 to 25 µM. `COc1ccc([C@@H](C)NC(=O)CSc2nc(=O)[nH]cc2F)cc1` [Compound I-228] was tested, and the Kd was 1 to 25 µM. In the case of `COc1ccc([C@@H](C)NC(=O)CSc2nc(=O)[nH]cc2C)cc1` [Compound I-247], the Kd is reported as 1 to 25 µM. `Cc1c[nH]c(=O)nc1SCC(=O)NCc1ccc2c(c1)NCCO2` [Compound I-54] showed a Kd of over 25 µM. Compound `COc1ccc(CN2CCC(Sc3nc(=O)[nH]cc3C)C2=O)cc1` (centres unmarked) [Compound I-252] has a Kd of over 25 µM. Work on `COc1ccc(CNC(=O)CSc2nc(=O)[nH]cc2C)cn1` [Compound I-43] yielded a Kd of over 25 µM. With `Cc1c[nH]c(=O)cc1SCC(=O)NCc1ccc2c(c1)NC(=O)CO2` [Compound I-52] the Kd was over 25 µM. Compound `COc1ccc(CNC(=O)CSc2nc(=O)[nH]cc2C)nc1` [Compound I-42] has a Kd of 1 to 25 µM. `COc1ccc(CNC(=O)CCc2nc(=O)[nH]cc2C)cc1` [Compound I-34] was tested, and the Kd was 1 to 25 µM. `COCC(Sc1nc(=O)[nH]cc1C)C(=O)NC(C)c1ccc2c(c1)CC(=O)N2` (centres unmarked) [Compound I-192] was tested, and the Kd was 1 to 25 µM. `Cc1c[nH]c(=O)nc1SCC(=O)NCc1ccc2c(c1)NC(=O)C2` [Compound I-57] was tested, and the Kd was 1 to 25 µM. With `COc1ccc(C(CO)NC(=O)CSc2nc(=O)[nH]cc2C)cc1` (centres unmarked) [Compound I-46] the Kd was 1 to 25 µM. For `COc1ccc([C@H](NC(=O)CSc2nc(=O)[nH]cc2C)C(C)C)cc1` [Compound I-218], the Kd was 1 to 25 µM. For `COCC(Sc1nc(=O)[nH]cc1C)C(=O)NC(C)c1ccc(OC)cc1` (centres unmarked) [Compound I-267], the Kd was 1 to 25 µM.

Same assay, conditions: Table 6; dissociation constant for CNOT7 by SPR
`COc1ccc([C@@H](C)NC(=O)C2(Sc3nc(=O)[nH]cc3C)CCC2)cc1` [Compound I-324] gave a Kd of 1 to 25 µM. For `COc1cnc(CNC(=O)CSc2nc(=O)[nH]cc2C)cn1` [Compound I-45], the Kd was 1 to 25 µM. With `Cc1c[nH]c(=O)nc1SCC(=O)N[C@H](C)c1ccc2c(c1)CC(=O)N2` [Compound I-190] the Kd was 1 to 25 µM. `COc1ccc([C@@H](C)NC(=O)[C@@H](CCOCCOCCOCCN=[N+]=[N-])Sc2cc[nH]c(=O)n2)cc1` [Compound I-261] gave a Kd of 1 to 25 µM. Work on `COc1ccc([C@](C)(CO)NC(=O)CSc2nc(=O)[nH]cc2C)cc1` [Compound I-250] yielded a Kd of 1 to 25 µM. Work on `C#CCOCCOCCOCCOC[C@@H]1Cc2cc(OC)ccc2CN1C(=O)CSc1nc(=O)[nH]cc1C` [Compound I-203] yielded a Kd of 1 to 25 µM. For `COc1c(F)cc([C@@H](C)NC(=O)CSc2nc(=O)[nH]cc2Cl)cc1F` [Compound I-313], the Kd was 1 to 25 µM. Work on `COCCOC[C@@H](Sc1nc(=O)[nH]cc1C)C(=O)N[C@H](C)c1ccc(OC)cc1` [Compound I-172] yielded a Kd of 1 to 25 µM. For `COCC(Sc1nc(=O)[nH]cc1Cl)C(=O)NC(C)c1ccc2c(c1)CC(=O)N2` (centres unmarked) [Compound I-323], the Kd was 1 to 25 µM. With `C#CCOCCOCCOCC(Sc1nc(=O)[nH]cc1C)C(=O)NC(C)c1ccc(OC)cc1F` (centres unmarked) [Compound I-326] the Kd was 1 to 25 µM. `Cc1c[nH]c(=O)nc1SCC(=O)NC(C)c1ccc2c(c1)CC(=O)N2` (centres unmarked) [Compound I-322] gave a Kd of 1 to 25 µM.

Same assay, conditions: dissociation constant by SPR, Table 7
In the case of `COc1ccc([C@@H](C)NC(=O)C2(Sc3nc(=O)[nH]cc3C)CCC2)cc1` [Compound I-324], the Kd is reported as 0.1 to 1 µM. `COc1ccc(CNC(=O)[C@@H](CCOCCOCCOCCN=[N+]=[N-])Sc2nc(=O)[nH]cc2Cl)c(F)c1` [Compound I-401] was tested, and the Kd was over 25 µM. `COc1ccc2c(c1)C[C@H](COCCOCCOCCOCCN=[N+]=[N-])N(C(=O)CSc1nc(=O)[nH]cc1Cl)[C@@H]2C` [Compound I-428] gave a Kd of 1 to 25 µM. For `COC[C@H](Sc1nc(=O)[nH]cc1Cl)C(=O)N[C@H](C)c1ccc2c(c1)CC(=O)N2` [Compound I-334], the Kd was 1 to 25 µM. In the case of `COc1ccc(CNC(=O)[C@H](CCOCCOCCOCCN=[N+]=[N-])Sc2nc(=O)[nH]cc2Cl)c(F)c1` [Compound I-402], the Kd is reported as 1 to 25 µM. With `COCCOCC[C@@H](Sc1nc(=O)[nH]cc1C)C(=O)NCc1ccc(OC)cc1` [Compound I-444] the Kd was 1 to 25 µM. Compound `COc1ccc2c(c1)CCN(C(=O)[C@@H](COCCOCCOCCN=[N+]=[N-])Sc1nc(=O)[nH]cc1C)[C@@H]2C` [Compound I-421, 4-[(1R)-1-[2-[2-(2-azidoethoxy)ethoxy]ethoxymethyl]-2-[(1R)-6-methoxy-1-methyl-3,4-dihydro-1H-isoquinolin-2-yl]-2-oxo-ethyl]sulfanyl-5-methyl-1H-pyrimidin-2-one] has a Kd of over 25 µM. Work on `C#CCOCCOCCOCCOC[C@H]1CN(C(=O)CSc2nc(=O)[nH]cc2Cl)[C@@H](C)c2ccc(OC)cc21` [Compound I-493] yielded a Kd of 1 to 25 µM. Compound `COC[C@@H](Sc1nc(=O)[nH]cc1C)C(=O)N[C@@H](C)c1ccc2c(c1)CC(=O)N2` [Compound I-332] has a Kd of 1 to 25 µM. With `COCCOCC#CCC(Sc1nc(=O)[nH]cc1C)C(=O)NCc1ccc(OC)cc1` (centres unmarked) [Compound I-500] the Kd was 1 to 25 µM. Compound `COc1ccc2c(c1)C[C@H](COCCOCCOCCOCCN=[N+]=[N-])N(C(=O)CSc1nc(=O)[nH]cc1C)C2` [Compound I-487] has a Kd of over 25 µM. `COCC(Sc1nc(=O)[nH]cc1Cl)C(=O)NC(C)c1ccc2c(c1)CC(=O)N2` (centres unmarked) [Compound I-323] gave a Kd of 1 to 25 µM. In the case of `Cc1c[nH]c(=O)nc1S[C@H](COCCOCCOCCN=[N+]=[N-])C(=O)NCc1ccc2c(c1)CC(=O)N2` [Compound I-407], the Kd is reported as 1 to 25 µM. `C#CCOCCOCCOCC(Sc1nc(=O)[nH]cc1C)C(=O)NC(C)c1ccc(OC)cc1F` (centres unmarked) [Compound I-326] was tested, and the Kd was 1 to 25 µM. `COc1ccc(C(C)NC(=O)C(CCOCCOCCOCCn2cc(CCc3ccc(NC(=O)Nc4nc(CC(=O)N5CCN(C)CC5)cs4)cc3)nn2)Sc2nc(=O)[nH]cc2Cl)c(F)c1` (centres unmarked) [Compound I-384] showed a Kd of over 25 µM. With `COc1ccc2c(c1)C[C@H](COCCOCCOCCOCCN=[N+]=[N-])N(C(=O)CSc1nc(=O)[nH]cc1Cl)C2` [Compound I-416] the Kd was 1 to 25 µM. Work on `COCCOCCC(Sc1nc(=O)[nH]cc1C)C(=O)NCc1ccc(OC)cc1` (centres unmarked) [Compound I-443] yielded a Kd of 1 to 25 µM. For `COCCOCC#CC[C@H](Sc1nc(=O)[nH]cc1C)C(=O)NCc1ccc(OC)cc1` [Compound I-502], the Kd was 1 to 25 µM. Compound `Cc1c[nH]c(=O)nc1S[C@@H](COCCOCCOCCN=[N+]=[N-])C(=O)NCc1ccc2c(c1)CC(=O)N2` [Compound I-408] has a Kd of 1 to 25 µM. In the case of `COc1ccc2c(c1)CCN(C(=O)CSc1nc(=O)[nH]cc1Cl)C2` [Compound I-431], the Kd is reported as 1 to 25 µM. In the case of `COc1ccc(CNC(=O)[C@H](CCc2ccc(O)cc2)Sc2nc(=O)[nH]cc2C)cc1` [Compound I-489], the Kd is reported as 1 to 25 µM. `COC[C@H](Sc1nc(=O)[nH]cc1C)C(=O)NCc1ccc2c(c1)CC(=O)N2C` [Compound I-412] was tested, and the Kd was 1 to 25 µM. `COCCNC(=O)CCC(Sc1nc(=O)[nH]cc1C)C(=O)NCc1ccc(OC)cc1` (centres unmarked) [Compound I-490] was tested, and the Kd was 1 to 25 µM. With `COc1ccc([C@@H](C)NC(=O)[C@@H](CCOCCOCCOCCN=[N+]=[N-])Sc2nc(=O)[nH]cc2C)c(F)c1` [Compound I-378] the Kd was 1 to 25 µM. Work on `COc1ccc(CNC(=O)[C@H](COCCOCCOCCN=[N+]=[N-])Sc2nc(=O)[nH]cc2C)cc1` [Compound I-404] yielded a Kd of 1 to 25 µM. In the case of `C#CCOCCOCCOCC(Sc1nc(=O)[nH]cc1Cl)C(=O)NC(C)c1ccc(OC)cc1F` (centres unmarked) [Compound I-342], the Kd is reported as 1 to 25 µM. `COc1ccc(CNC(=O)[C@H](CCOCCOCCOCCN=[N+]=[N-])Sc2nc(=O)[nH]cc2Cl)cc1` [Compound I-400] gave a Kd of over 25 µM. Compound `C#CCOCCOCCOCCOC[C@H]1Cc2cc(OC)ccc2[C@@H](C)N1C(=O)CSc1nc(=O)[nH]cc1Cl` [Compound I-433] has a Kd of over 25 µM.

— US20260199485A1, “RNA DEGRADERS AND USES THEREOF” (Arrakis Therapeutics, Inc., priority 2022, published 2026)
